# Reference: paper PMC12430830, “Discovery of a Novel Cyclopeptide as Tyrosinase Inhibitor for Skin Lightening” (Skin Research and Technology, 2025)
# Values joined by “and” are separate entries in the source; they are usually repeats but may differ in a detail not shown here. Equal values may be shown once. Read-outs that look alike come from different tables or passages of the source.
# What was measured:
# human melanocyte cells [1] = test: MTT cytotoxicity / growth inhibition in human melanocytes; assay type: cell-based; details: 24 h, n = 3
# Protocol: (§1) Human melanocytes (Batch number: MC210817; Guangdong Biocell Biotechnology Co. Ltd.) were cultured in DMEM/F12 medium supplemented with 20% FBS (Hyclone) and 100 U/mL penicillin at 37°C with 5% CO2 atmosphere.
# For cytotoxicity, evaluation of peptides on human melanocyte cells was assessed using the standard MTT assay. Cells were seeded in 96‐well plates at a density of 10 000 cells per well and incubated for 12 h under standard culture conditions. […] A negative control group (culture medium containing 10% Dimethyl sulfoxide (DMSO), v/v) was included. Post‐treatment, 0.5 mg/mL MTT reagent was added to each well, followed by 4 h of incubation at 37°C. Formazan crystals formed in viable cells were dissolved in 150 µL DMSO, and absorbance was measured at 490 nm using a Synergy multimode reader (BioTek, USA). Each concentration was tested in triplicate. Statistical significance was determined via one‐way ANOVA (GraphPad Prism 5). All experiments were conducted in triplicate (n = 3).
# human melanocyte cells [2] = test: Melanin content in melanocytes; assay type: cell-based; details: n = 3
# Protocol: as §1
# Upon reaching 80%–90% confluence, human melanocyte cells were dissolved with 0.25% trypsin to create a single‐cell suspension. Then, the cells were seeded in 6‐well plates at 200 000 cells per well and cultured for 12 h in a 37°C humidified incubator (5% CO2, V/V). When the confluence of cells reached 40%–60%, they were incubated with specific peptides or the positive control for 24 h. Following the incubation period, the supernatant was removed and the adherent cells were washed with PBS before being dispersed using trypsin (700 µL/well, 0.25%). The dispersed cells were collected and centrifuged at 10 000 rpm for 10 min. The cell pellet from each well was then treated with a mixture of distilled water (200 µL), anhydrous ethanol (500 µL), and ether (500 µL). The mixture was vortexed and allowed to stand at room temperature for 20 min, followed by centrifugation at 3000 rpm for 5 min. The precipitate was dissolved in 1 mL of 1 M NaOH containing 10% DMSO, then incubated at 80°C in a water bath for 40 minutes. After incubation, the solution was transferred to a 96‐well culture plate for optical density measurement at 405 nm. Each analysis was performed in triplicate and results were expressed as mean ± standard deviation (SD).
# tyrosinase = test: Tyrosinase inhibition assay (intracellular tyrosinase, lysate of treated melanocytes, L‐DOPA); assay type: cell-based, human; details: cells treated 24 h, 475 nm, n = 3
# Protocol: The inhibition of tyrosinase activity was assessed according to the reported method. The 6‐well plates were incubated at 37°C with human melanocyte cells at a density of 2.5×10^5 cells per well in a humidified atmosphere (5% CO2) for 24 h. Subsequently, these cells were exposed to glabridin (0.00625%, V/V) as the positive control, along with other tested compounds. Following treatment, cells were incubated at 37°C for 24 h using identical conditions. After treatment, cells in each well were rinsed with a PBS buffer solution (500 µL) and lysed with a lysate buffer (100 µL containing 0.5% sodium deoxycholate) at approximately 0°C for 1 h. The resulting cell lysate was then centrifuged at 12 000 rpm at 4°C for 20 min. The protein concentration in the supernatant was quantified by a BCA Assay Kit (Beyotime Biotechnology, China). Samples were transferred to a 96‐well plate in a total volume of 100 µL ([…] of lysate supernatant and 20 µL of 0.1% L‐DOPA) and incubated for 60 min at 37°C. The absorbance was measured at 475 nm using a Synergy multimode reader (BioTek Corporation, USA).
# human melanocyte cells [3] = details: traditional skin‐lightening agent, at similar concentrations; general statement, no reference given; cited from earlier work
compound,measurement,setting,value
NC[C@H]1CC[C@H](C(=O)O)CC1 [tranexamic acid],change in cell viability,"human melanocyte cells [1]; tranexamic acid at higher concentrations (5 and 10 mg/mL), not statistically significant",A slight reduction in cell viability
same,"melanin reduction, single compounds","human melanocyte cells [2]; tranexamic acid 2.5 mg/mL, nonapeptide‐1 0.3% v/v, 24 h","melanin‐reducing effects, though not as strongly as CHP‐9 alone"
same,tyrosinase inhibition rate,"tyrosinase; tranexamic acid 2.5 mg/mL, L‐DOPA 60 min 37°C",10.71%
Cyclo(Gln‐Gly‐Pro‐Gln‐Gly‐Pro) (head to tail) [CHP‐9],cell viability,human melanocyte cells [1]; CHP‐9 across effective concentrations,> 90%
same,cytotoxicity,human melanocyte cells [1]; at tested concentrations (0.0781–10 mg/mL),noncytotoxic to human melanocytes
same,inhibitory effect on melanin production compared with glabridin,human melanocyte cells [2]; CHP‐9 1% versus glabridin 0.00625% v/v,comparable to glabridin
same,melanin content after treatment,"human melanocyte cells [2]; CHP‐9 1%, 24 h, OD 405 nm, mean ± SD, untreated control 30.90 ± 1.13 µg/mL",~23.51 µg/mL and 23.51 ± 1.14 µg/mL
same,tyrosinase inhibition rate,"tyrosinase; CHP‐9 1%, lysate with 0.1% L‐DOPA 60 min 37°C",28.57%
Oc1ccc(O)cc1 [hydroquinone],cytotoxicity,human melanocyte cells [3],exhibit cytotoxic effects
CC1(C)C=Cc2c(ccc3c2OC[C@@H](c2ccc(O)cc2O)C3)O1 [glabridin],inhibition of melanin production,"human melanocyte cells [2]; glabridin 0.00625% v/v, 24 h",strong inhibitory effect on melanin production
same,tyrosinase inhibition rate,"tyrosinase; glabridin 0.00625% v/v (positive control), L‐DOPA 60 min 37°C",approximately 14%
